Source: article PMC8286840, “Identifying SARS-CoV-2 antiviral compounds by screening for small molecule inhibitors of Nsp3 papain-like protease” (Biochemical Journal, 2021)
Structures can show the parent of a compound that is named as a salt. Where two headings read alike, the source gives them in different places.

Tests used:
[1] = target: T1, SARS-CoV-2 PLpro (nsp3 1564–1878) (Severe acute respiratory syndrome coronavirus 2, UniProt P0DTD1); test: biochemical; design: FRET-quenched peptide (Pro3) cleavage by PLpro, 10 min pre-incubation, slope over 20 min, normalised to no-compound control; conditions: read-out: % of control remaining
[2] = target: T1, SARS-CoV-2 PLpro (nsp3 1564–1878); test: biochemical; design: FRET-quenched peptide (Pro3) cleavage by PLpro, 10 min pre-incubation, slope over 20 min, normalised to no-compound control; conditions: read-out: % of control remaining; remark: listed apart in the source
Protocol: The plates were organized with columns 3–22 containing the compounds; the remaining columns were used for reaction controls including substrate only and substrate with enzyme but no compound (Figure 3Aii). The PLpro enzyme was pre-incubated with the compounds for 10 min, and then the reaction was initiated by the addition of substrate. […] We incubated the inhibitors with PLpro before the enzymatic reaction so that the slow-binding inhibitors will not be missed out [21]. […] Fluorescence was read on a Spark multimode microplate reader (Tecan) with an excitation wavelength at 330 nm and emission wavelength at 420 nm. […] An amount of 5 µl of the enzyme was pre-incubated with compounds for 10 min before the addition of 15 µl substrate. Fluorescence was monitored at 2 min for 20 min with 3 min intervals giving a total of seven readings.

SMILES: CN1CCc2c(c3ccccc3n2Cc2ccc(C(=O)NO)cc2)C1 [Tubastatin A HCl]
- remaining activity at 1.25 µM ([1]; Well no.=4962, low concentration screen): 90.5%
- remaining activity at 3.75 µM ([2]; Well no.=4962, high concentration screen): 88.7%

SMILES: Nc1ncnc2c1ccn2[C@@H]1O[C@H](CO)[C@@H](O)[C@H]1O [Tubercidin]
- remaining activity at 1.25 µM ([1]; Well no.=8060, low concentration screen): 96.1%
- remaining activity at 3.75 µM ([2]; Well no.=8060, high concentration screen): 95.7%

SMILES: CCOc1ccc(-c2cn(C)nc2-c2cc(OC)c(OC)c(OC)c2)cc1 [Tubulin inhibitor 1]
- remaining activity at 1.25 µM ([1]; Well no.=7162, low concentration screen): 104%
- remaining activity at 3.75 µM ([2]; Well no.=7162, high concentration screen): 97.8%

SMILES: CC(C)(C)NCC(O)c1ccccc1Cl (stereo not shown) [Tulobuterol hydrochloride]
- remaining activity at 1.25 µM ([1]; Well no.=1291, low concentration screen): 105%
- remaining activity at 3.75 µM ([2]; Well no.=1291, high concentration screen): 106%

SMILES: CC(C)(C)NCC(O)c1ccccc1Cl (stereo not shown) [Tulobuterol]
- remaining activity at 1.25 µM ([1]; Well no.=2027, low concentration screen): 98.5%
- remaining activity at 3.75 µM ([2]; Well no.=2027, high concentration screen): 100%

SMILES: CC(=O)N[C@H]1[C@@H](O[C@@H]2O[C@H](C[C@@H](O)[C@@H]3O[C@H](n4ccc(=O)[nH]c4=O)[C@@H](O)[C@H]3O)[C@H](O)[C@H](O)[C@H]2NC(=O)/C=C/CCCCCCCCCCC(C)C)O[C@H](CO)[C@@H](O)[C@@H]1O [Tunicamycin B]
- remaining activity at 1.25 µM ([1]; Well no.=3190, low concentration screen): 104%
- remaining activity at 3.75 µM ([2]; Well no.=3190, high concentration screen): 103%

SMILES: O=C(CO)[C@@H](O[C@H]1O[C@H](CO)[C@@H](O)[C@H](O)[C@H]1O)[C@H](O)[C@H](O)CO [Turanose]
- remaining activity at 1.25 µM ([1]; Well no.=6971, low concentration screen): 92.9%
- remaining activity at 3.75 µM ([2]; Well no.=6971, high concentration screen): 98.6%

SMILES: CC[C@H]1OC(=O)C[C@@H](O)[C@H](C)[C@@H](O[C@@H]2O[C@H](C)[C@@H](O[C@H]3C[C@@](C)(O)[C@@H](O)[C@H](C)O3)[C@H](N(C)C)[C@H]2O)[C@@H](CC=O)C[C@@H](C)C(=O)/C=C/C(C)=C/[C@@H]1CO[C@@H]1O[C@H](C)[C@@H](O)[C@@H](OC)[C@H]1OC [Tylosin tartrate]
- remaining activity at 1.25 µM ([1]; Well no.=4985, low concentration screen): 95.4%
- remaining activity at 3.75 µM ([2]; Well no.=4985, high concentration screen): 93%

SMILES: CC[C@H]1OC(=O)C[C@@H](O)[C@H](C)[C@@H](O[C@@H]2O[C@H](C)[C@@H](O[C@H]3C[C@@](C)(O)[C@@H](O)[C@H](C)O3)[C@H](N(C)C)[C@H]2O)[C@@H](CC=O)C[C@@H](C)C(=O)/C=C/C(C)=C/[C@@H]1CO[C@@H]1O[C@H](C)[C@@H](O)[C@@H](OC)[C@H]1OC [Tylosin]
- remaining activity at 1.25 µM ([1]; Well no.=2010, low concentration screen): 96.7%
- remaining activity at 3.75 µM ([2]; Well no.=2010, high concentration screen): 97.8%

SMILES: CSCC[C@H](NC(=O)[C@H](Cc1ccccc1)NC(=O)CNC(=O)CNC(=O)[C@@H](N)Cc1ccc(O)cc1)C(=O)O [Tyr-Gly-Gly-Phe-Met-OH]
- remaining activity at 1.25 µM [1]: 98.2%
- remaining activity at 3.75 µM [2]: 101%

SMILES: NCCc1ccc(O)cc1 [Tyramine]
- remaining activity at 1.25 µM ([1]; Well no.=6541, low concentration screen): 107%
- remaining activity at 3.75 µM ([2]; Well no.=6541, high concentration screen): 101%

SMILES: N#CC(C#N)=Cc1ccc(O)c(O)c1 [Tyrphostin 23]
- remaining activity at 1.25 µM ([1]; Well no.=1341, low concentration screen): 94.2%
- remaining activity at 3.75 µM ([2]; Well no.=1341, high concentration screen): 93.9%

SMILES: N#CC(C#N)=Cc1cc(O)c(O)c(O)c1 [Tyrphostin 25]
- remaining activity at 1.25 µM ([1]; Well no.=1485, low concentration screen): 90.9%
- remaining activity at 3.75 µM ([2]; Well no.=1485, high concentration screen): 86.6%

SMILES: N#C/C(=C\c1ccc(O)c(O)c1)C(N)=S [Tyrphostin 47]
- remaining activity at 1.25 µM ([1]; Well no.=1276, low concentration screen): 97.8%
- remaining activity at 3.75 µM ([2]; Well no.=1276, high concentration screen): 99.6%

SMILES: N#CC(C#N)=C(N)/C(C#N)=C/c1cc(O)c(O)c(O)c1 [Tyrphostin 51]
- remaining activity at 1.25 µM ([1]; Well no.=1324, low concentration screen): 96.8%
- remaining activity at 3.75 µM ([2]; Well no.=1324, high concentration screen): 95.8%

SMILES: CC(C)(C)c1cc(C=C(C#N)C#N)cc(C(C)(C)C)c1O [Tyrphostin A9]
- remaining activity at 1.25 µM ([1]; Well no.=1426, low concentration screen): 99.8%
- remaining activity at 3.75 µM ([2]; Well no.=1426, high concentration screen): 101%

SMILES: COc1cc(C=C(C#N)C#N)cc(O)c1O [Tyrphostin AG 34]
- remaining activity at 1.25 µM ([1]; Well no.=1387, low concentration screen): 102%
- remaining activity at 3.75 µM ([2]; Well no.=1387, high concentration screen): 101%

SMILES: N#CC(C#N)=C(N)/C(C#N)=C/c1ccc(O)cc1 [Tyrphostin AG 112]
- remaining activity at 1.25 µM ([1]; Well no.=1245, low concentration screen): 95.9%
- remaining activity at 3.75 µM ([2]; Well no.=1245, high concentration screen): 95.9%

SMILES: N#CC(C#N)=Cc1ccc([N+](=O)[O-])c(O)c1 [Tyrphostin AG 126]
- remaining activity at 1.25 µM ([1]; Well no.=1518, low concentration screen): 100%
- remaining activity at 3.75 µM ([2]; Well no.=1518, high concentration screen): 95.4%

SMILES: N#C/C(=C\c1ccc(O)c(O)c1)C(=O)NCc1ccccc1 [Tyrphostin AG 490]
- remaining activity at 1.25 µM ([1]; Well no.=1381, low concentration screen): 101%
- remaining activity at 3.75 µM ([2]; Well no.=1381, high concentration screen): 102%

SMILES: C[C@@H](NC(=O)/C(C#N)=C/c1ccc(O)c(O)c1)c1ccccc1 [Tyrphostin AG 527]
- remaining activity at 1.25 µM ([1]; Well no.=1431, low concentration screen): 97.8%
- remaining activity at 3.75 µM ([2]; Well no.=1431, high concentration screen): 100%

SMILES: N#C/C(=C\c1ccc(O)c(O)c1)C(=O)N1CCc2ccccc21 [Tyrphostin AG 528]
- remaining activity at 1.25 µM ([1]; Well no.=1193, low concentration screen): 92.5%
- remaining activity at 3.75 µM ([2]; Well no.=1193, high concentration screen): 93.3%

SMILES: N#C/C(=C\c1ccc(O)c(O)c1)C(=O)NCCCNC(=O)/C(C#N)=C/c1ccc(O)c(O)c1 [Tyrphostin AG 537]
- remaining activity at 1.25 µM ([1]; Well no.=1289, low concentration screen): 103%
- remaining activity at 3.75 µM ([2]; Well no.=1289, high concentration screen): 99.7%

SMILES: N#C/C(=C\c1ccc(O)c(O)c1)C(=O)c1ccc(O)c(O)c1 [Tyrphostin AG 538]
- remaining activity at 1.25 µM ([1]; Well no.=1468, low concentration screen): 93.5%
- remaining activity at 3.75 µM ([2]; Well no.=1468, high concentration screen): 92.4%

SMILES: N#C/C(=C\c1ccc(O)c(O)c1)C(=O)NCCCc1ccccc1 [Tyrphostin AG 555]
- remaining activity at 1.25 µM ([1]; Well no.=1337, low concentration screen): 101%
- remaining activity at 3.75 µM ([2]; Well no.=1337, high concentration screen): 98.7%

SMILES: N#C/C(=C\c1c[nH]c2ccccc12)C(=O)c1ccc(O)c(O)c1 [Tyrphostin AG 808]
- remaining activity at 1.25 µM ([1]; Well no.=1433, low concentration screen): 98.9%
- remaining activity at 3.75 µM ([2]; Well no.=1433, high concentration screen): 97.2%

SMILES: CC(C)(C)c1cc(/C=C(\C#N)C(N)=S)cc(C(C)(C)C)c1O [Tyrphostin AG 879]
- remaining activity at 1.25 µM ([1]; Well no.=1427, low concentration screen): 95.8%
- remaining activity at 3.75 µM ([2]; Well no.=1427, high concentration screen): 85.7%

SMILES: COc1cc2ncc(-c3ccccc3)nc2cc1OC [Tyrphostin AG 1296]
- remaining activity at 1.25 µM ([1]; Well no.=1477, low concentration screen): 97.5%
- remaining activity at 3.75 µM ([2]; Well no.=1477, high concentration screen): 97.9%

SMILES: COc1cc2ncnc(Nc3cccc(Cl)c3)c2cc1OC [Tyrphostin AG 1478]
- remaining activity at 1.25 µM ([1]; Well no.=1191, low concentration screen): 100%
- remaining activity at 3.75 µM ([2]; Well no.=1191, high concentration screen): 100%

SMILES: CC(C)c1cc(/C=C(\C#N)C(=O)NCCCc2ccccc2)cc(C(C)C)c1O [Tyrphostin SU 1498]
- remaining activity at 1.25 µM ([1]; Well no.=5970, low concentration screen): 90%
- remaining activity at 3.75 µM ([2]; Well no.=5970, high concentration screen): 89.5%

SMILES: N#CC(=C(/N)Sc1ccccc1N)/C(C#N)=C(\N)Sc1ccccc1N [U0126 - 1,4-Diamino-2,3-dicyano-1,4-bis[2-aminophenylthio]butadiene]
- remaining activity at 1.25 µM ([1]; Well no.=2346, low concentration screen): 96.1%
- remaining activity at 3.75 µM ([2]; Well no.=2346, high concentration screen): 96.8%

SMILES: N#CC(=C(/N)Sc1ccccc1N)/C(C#N)=C(\N)Sc1ccccc1N [U0126]
- remaining activity at 1.25 µM ([1]; Well no.=1240, low concentration screen): 99.2%
- remaining activity at 3.75 µM ([2]; Well no.=1240, high concentration screen): 101%

SMILES: C[C@]12C=CC(=O)C=C1CC[C@@H]1C2=CC[C@]2(C)[C@@H](C(=O)CN3CCN(c4cc(N5CCCC5)nc(N5CCCC5)n4)CC3)CC[C@@H]12 [U74389G maleate]
- remaining activity at 1.25 µM ([1]; Well no.=3905, low concentration screen): 103%
- remaining activity at 3.75 µM ([2]; Well no.=3905, high concentration screen): 98.2%

SMILES: NS(=O)(=O)c1ccc(NC(=O)Nc2ccc(F)cc2)cc1 [U-104]
- remaining activity at 1.25 µM ([1]; Well no.=8246, low concentration screen): 98%
- remaining activity at 1.25 µM ([1]; Well no.=8566, low concentration screen): 103%
- remaining activity at 3.75 µM ([2]; Well no.=8246, high concentration screen): 93.1%
- remaining activity at 3.75 µM ([2]; Well no.=8566, high concentration screen): 103%
